Positions of bridges follow the written chain, without caps; N, C: chain ends. Residues, ends and D or L forms follow the SMILES beside them.
Legend:
Format in all cases: binding
[1] = molecular target: IgG3 (Homo sapiens, UniProt P01860); set-up: all human subtypes derived from myeloma patients; purchased Calbiochem 400124; host or cells: myeloma patients; conditions: for % IgG Capture - Batch Binding, Human IgG3: Table 9, immobilized peptide, 5.0 mg/ml resin load
Outline: (§1)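 Percent bound = control mass minus unbound mass, with unbound IgG read at A280 after 1–1.5 h room-temperature incubation with the peptide resin in PBST pH 7.2 or TBST pH 7.5. Bound IgG was eluted 30–60 min with 0.1 M citrate pH 4.0 and/or bicarbonate pH 8.5. Recovery is given as percent of total load.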

[2] = molecular target: T1, human IgG2 (Homo sapiens, UniProt P01859); conditions: for % IgG Capture - Batch Binding, Human IgG2: Table 9, immobilized peptide, 5.0 mg/ml resin load
T1 construct: all human subtypes derived from myeloma patients; purchased Calbiochem 400122; host or cells: myeloma patients
T1 sequence (P01859 1-326 isoform P01859-1): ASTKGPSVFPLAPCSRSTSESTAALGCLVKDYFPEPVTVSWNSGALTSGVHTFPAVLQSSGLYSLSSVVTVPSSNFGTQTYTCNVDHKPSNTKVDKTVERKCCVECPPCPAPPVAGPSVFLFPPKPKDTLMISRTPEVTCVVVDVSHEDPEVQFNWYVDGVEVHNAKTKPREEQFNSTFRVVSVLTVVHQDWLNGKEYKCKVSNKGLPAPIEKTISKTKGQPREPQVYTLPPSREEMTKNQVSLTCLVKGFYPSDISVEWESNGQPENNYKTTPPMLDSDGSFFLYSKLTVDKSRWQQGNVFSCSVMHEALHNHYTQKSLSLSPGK
Outline: (§2)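 Read-out is A280 of unbound IgG (1.4 mg/ml extinction coefficient), with percent bound derived against non-filtered or negative controls. Targets were incubated with immobilized peptides in PBST or TBST for 1-1.5 h at room temperature. Hydrolyzed Sepharose and immobilized Protein A serve as negative and positive controls.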

[3] = test system: mouse IgG; conditions: Table 11; unfractionated IgG
Outline: (§3)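 Unfractionated IgG in PBST (10 mM phosphate, 150 mM NaCl, 0.01% Tween 20, pH 7.2) or TBST (50 mM Tris, pH 7.5) was batch-incubated with immobilized peptide resin for 1-1.5 h at room temperature. Unbound IgG was quantitated by A280, and percent bound was taken by subtraction from control values.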

[4] = test system: human IgG; conditions: Table 11; unfractionated IgG
Outline: as §3

[5] = test system: bovine IgG; conditions: Table 11; unfractionated IgG
Outline: as §3

[6] = test system: goat IgG; conditions: Table 11; unfractionated IgG
Outline: as §3

[7] = molecular target: T2, human IgG1 (Homo sapiens, UniProt P01857); conditions: for % IgG Capture - Batch Binding, Human IgG1: Table 9, immobilized peptide, 5.0 mg/ml resin load
T2 construct: all human subtypes derived from myeloma patients; purchased Calbiochem 400120; host or cells: myeloma patients
T2 sequence (P01857 1-330 isoform P01857-1): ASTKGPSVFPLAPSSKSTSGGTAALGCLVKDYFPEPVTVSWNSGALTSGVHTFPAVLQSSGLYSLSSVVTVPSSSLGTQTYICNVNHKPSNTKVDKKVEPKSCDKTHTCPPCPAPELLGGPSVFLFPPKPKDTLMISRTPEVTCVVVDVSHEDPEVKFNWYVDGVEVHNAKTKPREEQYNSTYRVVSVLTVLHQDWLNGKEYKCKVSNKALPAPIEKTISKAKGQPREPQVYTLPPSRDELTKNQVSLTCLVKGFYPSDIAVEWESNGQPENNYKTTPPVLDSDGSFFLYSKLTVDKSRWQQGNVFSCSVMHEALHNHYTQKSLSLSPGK
Outline: as §1

[8] = molecular target: IgG4 (Homo sapiens, UniProt P01861); set-up: all human subtypes derived from myeloma patients; purchased Calbiochem 400126; host or cells: myeloma patients; conditions: for % IgG Capture - Batch Binding, Human IgG4: Table 9, immobilized peptide, 5.0 mg/ml resin load
Chain of IgG4 (P01861 1-327 isoform P01861-1): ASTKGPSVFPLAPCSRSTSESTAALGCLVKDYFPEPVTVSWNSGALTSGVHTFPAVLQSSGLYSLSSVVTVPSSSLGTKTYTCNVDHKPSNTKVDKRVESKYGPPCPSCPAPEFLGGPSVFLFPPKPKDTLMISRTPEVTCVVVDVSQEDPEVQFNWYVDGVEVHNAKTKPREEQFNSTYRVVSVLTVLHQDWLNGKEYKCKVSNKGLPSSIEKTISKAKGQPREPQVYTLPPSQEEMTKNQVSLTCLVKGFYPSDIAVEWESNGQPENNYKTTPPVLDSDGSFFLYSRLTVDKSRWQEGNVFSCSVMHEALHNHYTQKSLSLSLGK
Outline: as §2

[9] = Table 10, elution 0.1 M sodium bicarbonate buffer, pH 8.5
[10] = Table 10, elution 0.1 M sodium citrate buffer, pH 4.0

Chain of IgG3 (P01860 1-377 isoform P01860-1): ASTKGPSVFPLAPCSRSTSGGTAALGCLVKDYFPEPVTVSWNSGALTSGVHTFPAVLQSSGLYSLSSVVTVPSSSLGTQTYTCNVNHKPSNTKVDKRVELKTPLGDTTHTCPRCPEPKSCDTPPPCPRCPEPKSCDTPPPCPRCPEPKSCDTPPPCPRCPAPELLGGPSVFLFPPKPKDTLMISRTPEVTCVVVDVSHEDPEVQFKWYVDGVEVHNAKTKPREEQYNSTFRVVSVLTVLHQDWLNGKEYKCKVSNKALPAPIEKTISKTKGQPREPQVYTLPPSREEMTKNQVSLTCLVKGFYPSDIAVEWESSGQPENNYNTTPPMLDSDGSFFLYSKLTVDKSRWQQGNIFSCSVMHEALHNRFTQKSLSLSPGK

% IgG Capture - Batch Binding, Human IgG3 [1]	Human IgG3 bdg % (% of Total Load) ([1]; Table 10, batch binding)	Human IgG3 elu pH 8.5 (% of Total Load) [1, 9]	Human IgG3 elu pH 4.0 (% of Total Load) [1, 10]	% IgG Capture - Batch Binding, Human IgG2 [2]	Human IgG2 bdg % (% of Total Load) ([2]; Table 10, batch binding)	Human IgG2 elu pH 8.5 (% of Total Load) [2, 9]	Human IgG2 elu pH 4.0 (% of Total Load) [2, 10]	% IgG Capture - Batch Binding, Mouse IgG [3]	% IgG Capture - Batch Binding, Human IgG [4]	% IgG Capture - Batch Binding, Bovine IgG [5]	% IgG Capture - Batch Binding, Goat IgG [6]	% IgG Capture - Batch Binding, Human IgG1 [7]	Human IgG1 bdg % (% of Total Load) ([7]; Table 10, batch binding)	Human IgG1 elu pH 8.5 (% of Total Load) [7, 9]	Human IgG1 elu pH 4.0 (% of Total Load) [7, 10]	% IgG Capture - Batch Binding, Human IgG4 [8]	Human IgG4 bdg % (% of Total Load) ([8]; Table 10, batch binding)	Human IgG4 elu pH 8.5 (% of Total Load) [8, 9]	Structure (SMILES)
35%	44%	8%	5%	24%	37%	8%	10%	1%	20%	0%	0%	34%	37%	19%	30%	6%	14%	4%	CC(=O)NCC(=O)N[C@@H](CC(=O)O)C(=O)N[C@@H](CC(=O)O)C(=O)N[C@@H](CC(=O)O)C(=O)N[C@@H](Cc1c[nH]cn1)C(=O)N[C@H]1CSSC[C@@H](C(=O)N2CCC[C@H]2C(=O)N[C@@H](Cc2c[nH]cn2)C(=O)NCC(=O)N[C@@H](CCC(=O)O)C(=O)N2CCC[C@H]2C(=O)NCC(=O)N2CCC[C@H]2C(=O)N[C@@H](CCC(=O)O)C(=O)NCC(=O)NCC(=O)NCC(=O)N[C@@H](CCCCN)C(N)=O)NC(=O)[C@H](CCC(=O)O)NC(=O)[C@H](CO)NC(=O)[C@H](CC(N)=O)NC(=O)[C@H](Cc2ccccc2)NC(=O)[C@H](Cc2c[nH]c3ccccc23)NC(=O)[C@H](CCC(=O)O)NC(=O)[C@H](CCCNC(=N)N)NC(=O)[C@H](Cc2ccccc2)NC(=O)[C@H](Cc2c[nH]c3ccccc23)NC(=O)[C@H](Cc2ccc(O)cc2)NC1=O [DX252] (Ac-GDDDHCYWFREWFNSECPHGEPGPEGGGK-NH2; disulfide 6-17 (inferred))
26%				11%				0%	4%	0%	0%	4%				3%			CC(=O)N[C@@H](C)C(=O)NCC(=O)N1CCC[C@H]1C(=O)N[C@@H](Cc1c[nH]cn1)C(=O)N[C@@H](CC(N)=O)C(=O)N[C@H]1CSSC[C@@H](C(=O)N[C@@H](CCCCN)C(=O)N[C@@H](Cc2c[nH]c3ccccc23)C(=O)N[C@@H](Cc2ccccc2)C(=O)N2CCC[C@H]2C(=O)NCC(=O)N2CCC[C@H]2C(=O)N[C@@H](CCC(=O)O)C(=O)NCC(=O)NCC(=O)NCC(=O)N[C@@H](CCCCN)C(N)=O)NC(=O)[C@H](Cc2ccc(O)cc2)NC(=O)[C@H](Cc2c[nH]c3ccccc23)NC(=O)[C@H](Cc2ccc(O)cc2)NC(=O)[C@H](Cc2c[nH]cn2)NC(=O)[C@H](CC(=O)O)NC(=O)[C@H](CC(=O)O)NC1=O [DX389] (Ac-AGPHNCDDHYWYCKWFPGPEGGGK-NH2; disulfide 6-13 (inferred))

— patent US20030199671A1, “Binding molecules for Fc-region polypeptides” (priority 2001, published 2003)
